Experimental data as given in patent publication US9676782B2, “Substituted pyrazolo[1,5-a]pyrazines as negative allosteric modulators of metabotropic glutamate receptor 3” (Vanderbilt University, priority 2014, dated 2017).
Where two headings read alike, the source gives them in different places.

What was measured:
[1] = molecular target: rat mGlu3 (Rattus norvegicus (Rat), UniProt P31422); test: mGlu3 Ca2+ flux assay; assay type: cell-based; details: for IC50: NAM potency, decrease of glutamate EC80 response, >30,000 = no measurable activity, >10,000 = no plateau, read-out: rat mGlu3 IC50; for remaining activity at 30 µM: amplitude of response at 30 μM test compound as % of maximal response to glutamate, read-out: rat mGlu3 Glu max (%)
rat mGlu3, sequence (P31422 23-879): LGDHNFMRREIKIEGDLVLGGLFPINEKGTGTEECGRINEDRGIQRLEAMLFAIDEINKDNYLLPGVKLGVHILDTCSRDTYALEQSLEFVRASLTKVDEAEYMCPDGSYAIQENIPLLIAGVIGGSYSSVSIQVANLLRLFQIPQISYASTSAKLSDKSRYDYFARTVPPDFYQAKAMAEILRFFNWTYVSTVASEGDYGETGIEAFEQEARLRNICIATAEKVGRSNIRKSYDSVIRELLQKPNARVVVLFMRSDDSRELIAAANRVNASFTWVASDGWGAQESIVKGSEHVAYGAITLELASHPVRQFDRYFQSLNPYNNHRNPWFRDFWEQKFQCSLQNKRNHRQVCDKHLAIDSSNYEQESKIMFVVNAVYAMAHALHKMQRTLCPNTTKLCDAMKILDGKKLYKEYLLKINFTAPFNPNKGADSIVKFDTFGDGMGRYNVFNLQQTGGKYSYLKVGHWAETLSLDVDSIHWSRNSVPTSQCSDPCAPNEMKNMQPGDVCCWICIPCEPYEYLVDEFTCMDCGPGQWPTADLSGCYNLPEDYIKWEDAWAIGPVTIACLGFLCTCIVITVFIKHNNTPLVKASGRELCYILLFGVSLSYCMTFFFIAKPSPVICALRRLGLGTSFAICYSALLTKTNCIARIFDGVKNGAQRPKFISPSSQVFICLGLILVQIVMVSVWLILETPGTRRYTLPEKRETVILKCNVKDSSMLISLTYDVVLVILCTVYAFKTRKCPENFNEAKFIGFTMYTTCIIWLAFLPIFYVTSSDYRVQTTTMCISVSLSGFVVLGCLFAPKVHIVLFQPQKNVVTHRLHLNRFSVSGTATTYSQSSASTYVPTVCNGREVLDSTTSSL
Summary of the method: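 Cells expressing rat mGlu3 were grown overnight at 37° C. under 5% CO2, then loaded with dye. After dye removal they received 20 μL of assay buffer and sat 10 minutes at room temperature. Calcium flux was read on a Hamamatsu FDSS7000, and fluorescence was expressed as fold over basal and normalized to the maximal glutamate response.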

[2] = molecular target: rat mGlu5 (Rattus norvegicus (Rat), UniProt P31424); test: mGlu5 Ca2+ flux assay; assay type: cell-based; details: for Fold selectivity (mGlu3 vs. mGlu5): ratio of rat mGlu5 EC50 or IC50 to rat mGlu3 IC50; for Emax at 30 µM: read-out: rat mGlu5 Glu max (%)
rat mGlu5, sequence (P31424 21-1203): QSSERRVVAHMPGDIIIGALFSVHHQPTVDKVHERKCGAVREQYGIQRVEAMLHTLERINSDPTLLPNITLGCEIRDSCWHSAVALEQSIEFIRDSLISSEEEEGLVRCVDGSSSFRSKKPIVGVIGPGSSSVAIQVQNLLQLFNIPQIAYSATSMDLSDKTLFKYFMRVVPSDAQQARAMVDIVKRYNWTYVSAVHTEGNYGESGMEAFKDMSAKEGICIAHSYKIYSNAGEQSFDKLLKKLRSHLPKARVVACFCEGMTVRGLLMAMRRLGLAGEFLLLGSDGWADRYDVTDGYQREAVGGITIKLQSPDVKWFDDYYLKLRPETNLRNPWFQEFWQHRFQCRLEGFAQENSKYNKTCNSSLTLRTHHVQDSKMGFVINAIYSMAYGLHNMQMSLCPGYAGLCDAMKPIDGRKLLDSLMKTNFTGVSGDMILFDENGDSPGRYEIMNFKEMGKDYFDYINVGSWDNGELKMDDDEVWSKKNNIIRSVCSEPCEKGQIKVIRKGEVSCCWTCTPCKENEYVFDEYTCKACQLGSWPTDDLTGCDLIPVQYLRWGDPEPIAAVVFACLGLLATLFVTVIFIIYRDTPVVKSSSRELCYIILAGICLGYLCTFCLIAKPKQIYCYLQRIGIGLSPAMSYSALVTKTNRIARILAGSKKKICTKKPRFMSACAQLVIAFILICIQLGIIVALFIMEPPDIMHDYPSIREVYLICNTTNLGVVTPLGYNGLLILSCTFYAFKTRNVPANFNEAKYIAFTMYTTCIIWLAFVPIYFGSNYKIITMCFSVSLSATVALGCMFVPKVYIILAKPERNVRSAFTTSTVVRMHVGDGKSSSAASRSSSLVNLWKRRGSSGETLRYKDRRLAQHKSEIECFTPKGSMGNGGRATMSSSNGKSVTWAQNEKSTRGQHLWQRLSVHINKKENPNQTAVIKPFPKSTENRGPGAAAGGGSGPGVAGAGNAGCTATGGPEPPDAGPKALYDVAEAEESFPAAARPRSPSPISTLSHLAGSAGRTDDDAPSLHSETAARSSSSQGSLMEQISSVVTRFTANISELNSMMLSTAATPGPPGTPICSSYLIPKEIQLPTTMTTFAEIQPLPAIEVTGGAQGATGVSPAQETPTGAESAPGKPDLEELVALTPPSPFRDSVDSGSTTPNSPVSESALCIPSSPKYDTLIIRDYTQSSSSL
Summary of the method: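 Transfected cells grown overnight at 37° C/5% CO2, dye-loaded, then 5 min in assay buffer at RT before Ca2+ flux read on FDSS7000. Fluorescence as F/F0 fold over basal, normalized to maximal glutamate response; EC50 from unconstrained 4-parameter logistic fit, triplicates weighted evenly.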

[3] = read-out: rat mGlu5 EC50 or IC50
[4] = PAM, amplitude of response at 30 μM test compound as % of maximal response to glutamate

| SMILES | IC50 [1] [nM] | remaining activity at 30 µM [1] [%] | Fold selectivity (mGlu3 vs. mGlu5) [2] | EC50 [2, 3] [nM] | IC50 ([2]; compound noted as NAM or partial antagonist (PAnt) at mGlu5, glutamate EC80, read-out: rat mGlu5 EC50 or IC50) [nM] | Emax at 30 µM ([2]; compound noted as NAM or partial antagonist (PAnt) at mGlu5, response at 30 μM as % of maximal glutamate response) [%] | Emax at 30 µM [2, 4] [%] |
| --- | --- | --- | --- | --- | --- | --- | --- |
| CN(Cc1cc2n(n1)CCN(c1ccc(F)cc1)C2=O)c1ccccc1 [Compound 82, 5-(4-fluorophenyl)-2-((methyl(phenyl)amino)methyl)-6,7-dihydropyrazolo[1,5-a]pyrazin-4(5H)-one] | 1220 | 1.01 | >24 | > 30000 | – | – | – |
| CN(Cc1cc2n(n1)CCN(c1ccc(F)cc1)C2=O)c1ccccc1F [Compound 83, 5-(4-fluorophenyl)-2-(((2-fluorophenyl)(methyl)amino)methyl)-6,7-dihydropyrazolo[1,5-a]pyrazin-4(5H)-one] | 876 | -0.98 | >34 | > 30000 | – | – | – |
| CN(Cc1cc2n(n1)CCN(c1ccc(F)cc1)C2=O)c1ccccc1Cl [Compound 84, 2-(((2-chlorophenyl)(methyl)amino)methyl)-5-(4-fluorophenyl)-6,7-dihydropyrazolo[1,5-a]pyrazin-4(5H)-one] | 1860 | 0.82 | >5.3 | – | > 10000 | 73.4 | – |
| COc1ccccc1N(C)Cc1cc2n(n1)CCN(c1ccc(F)cc1)C2=O [Compound 85, 5-(4-fluorophenyl)-2-(((2-methoxyphenyl)(methyl)amino)methyl)-6,7-dihydropyrazolo[1,5-a]pyrazin-4(5H)-one] | 9480 | -7.96 | >3.1 | > 30000 | – | – | – |
| CN(Cc1cc2n(n1)CCN(c1ccc(F)cc1)C2=O)c1cccc(F)c1 [Compound 86, 5-(4-fluorophenyl)-2-(((3-fluorophenyl)(methyl)amino)methyl)-6,7-dihydropyrazolo[1,5-a]pyrazin-4(5H)-one] | 594 | 1.68 | 13.06 | 7760 | – | – | 110 |
| CN(Cc1cc2n(n1)CCN(c1ccc(F)cc1)C2=O)c1cccc(Cl)c1 [Compound 87, 2-(((3-chlorophenyl)(methyl)amino)methyl)-5-(4-fluorophenyl)-6,7-dihydropyrazolo[1,5-a]pyrazin-4(5H)-one] | 805 | 0.71 | >12 | > 10000 | – | – | 41.9 |
| COc1cccc(N(C)Cc2cc3n(n2)CCN(c2ccc(F)cc2)C3=O)c1 [Compound 88, 5-(4-fluorophenyl)-2-(((3-methoxyphenyl)(methyl)amino)methyl)-6,7-dihydropyrazolo[1,5-a]pyrazin-4(5H)-one] | 1020 | 0.55 | >29 | > 30000 | – | – | – |
| CN(Cc1cc2n(n1)CCN(c1ccc(F)cc1)C2=O)c1ccc(F)cc1 [Compound 89, 5-(4-fluorophenyl)-2-(((4-fluorophenyl)(methyl)amino)methyl)-6,7-dihydropyrazolo[1,5-a]pyrazin-4(5H)-one] | 467 | 1.29 | >64 | > 30000 | – | – | – |
| CN(Cc1cc2n(n1)CCN(c1ccc(F)cc1)C2=O)c1ccc(Cl)cc1 [Compound 90, 2-(((4-chlorophenyl)(methyl)amino)methyl)-5-(4-fluorophenyl)-6,7-dihydropyrazolo[1,5-a]pyrazin-4(5H)-one] | 885 | 1.4 | 5.08 | 4500 | – | – | 87.3 |
| CN(Cc1cc2n(n1)CCN(c1ccc(F)cc1)C2=O)c1ccc(Br)cc1 [Compound 91, 2-(((4-bromophenyl)(methyl)amino)methyl)-5-(4-fluorophenyl)-6,7-dihydropyrazolo[1,5-a]pyrazin-4(5H)-one] | 592 | 2.53 | >50 | > 30000 | – | – | – |
| CN(Cc1cc2n(n1)CCN(c1ccc(F)cc1)C2=O)c1ccc(C#N)cc1 [Compound 93, 4-(((5-(4-fluorophenyl)-4-oxo-4,5,6,7-tetrahydropyrazolo[1,5-a]pyrazin-2-yl)methyl)(methyl)amino)benzonitrile] | 1130 | 1.47 | >8.8 | > 10000 | – | – | 57.2 |
| CN(Cc1cc2n(n1)CCN(c1ccc(F)cc1)C2=O)c1cc(F)cc(F)c1 [Compound 94, 2-(((3,5-difluorophenyl)(methyl)amino)methyl)-5-(4-fluorophenyl)-6,7-dihydropyrazolo[1,5-a]pyrazin-4(5H)-one] | 660 | 1.58 | >15 | > 10000 | – | – | 29.9 |
| O=C1c2cc(CNc3ccc(OC(F)F)cc3F)nn2CCN1c1cccc(F)c1 [Compound 95, 2-(((4-(Difluoromethoxy)-2-fluorophenyl)amino)methyl)-5-(3-fluorophenyl)-6,7-dihydropyrazolo[1,5-a]pyrazin-4(5H)-one] | 588 | 3.43 | >17 | > 10000 | – | – | 31.1 |
| COc1ccc(N(C)Cc2cc3n(n2)CCN(c2ccc(Cl)cc2)C3=O)cc1 [Compound 96, 5-(4-chlorophenyl)-2-(((4-methoxyphenyl)(methyl)amino)methyl)-6,7-dihydropyrazolo[1,5-a]pyrazin-4(5H)-one] | 585 | 1.61 | >51 | > 30000 | – | – | – |
| COc1ccc(N(C)Cc2cc3n(n2)CCN(c2ccc(F)c(F)c2)C3=O)cc1 [Compound 97, 5-(3,4-difluorophenyl)-2-(((4-methoxyphenyl)(methyl)amino)methyl)-6,7-dihydropyrazolo[1,5-a]pyrazin-4(5H)-one] | 1080 ± 240 | 1.74 ± 0.56 | >27 | > 30000 | – | – | – |
| COc1ccc(N(C)Cc2cc3n(n2)CCN(c2cccc(Cl)c2)C3=O)cc1 [Compound 98, 5-(3-chlorophenyl)-2-(((4-methoxyphenyl)(methyl)amino)methyl)-6,7-dihydropyrazolo[1,5-a]pyrazin-4(5H)-one] | 668 | 1.53 | >44 | > 30000 | – | – | – |
| COc1ccc(N(C)Cc2cc3n(n2)CCN(c2ccc(C)cc2)C3=O)cc1 [Compound 99, 2-(((4-methoxyphenyl)(methyl)amino)methyl)-5-(p-tolyl)-6,7-dihydropyrazolo[1,5-a]pyrazin-4(5H)-one] | 675 | 1.2 | >44 | > 30000 | – | – | – |
| COc1ccc(N(C)Cc2cc3n(n2)CCN(c2ccccc2Cl)C3=O)cc1 [Compound 100, 5-(2-chlorophenyl)-2-(((4-methoxyphenyl)(methyl)amino)methyl)-6,7-dihydropyrazolo[1,5-a]pyrazin-4(5H)-one] | 777 | 1.8 | >38 | > 30000 | – | – | – |
| COc1ccc(N(C)Cc2cc3n(n2)CCN(c2cccc(F)c2)C3=O)cc1 [Compound 101, 5-(3-fluorophenyl)-2-(((4-methoxyphenyl)(methyl)amino)methyl)-6,7-dihydropyrazolo[1,5-a]pyrazin-4(5H)-one] | 783 | 1.57 | >38 | > 30000 | – | – | – |
